Results taken from US10647713B2 (Nimbus Lakshmi, Inc., priority 2016, dated 2020).

Target: human TYK2 (JH2domain-pseudokinase) (Homo sapiens (Human), UniProt P29597)
Assay: TYK2 JH2 Domain Binding Assay (KINOMEscan, DiscoveRx)
Conditions: 11-point dilution, duplicate
Outline: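 TYK2 JH2 (G556–D888)–NFkB DBD fusion, DNA-tagged, from HEK293 extracts (<0.1 nM) competed against immobilised biotinylated ligand for 1 h at room temperature, 0.9% DMSO. Bead-retained kinase quantified by qPCR; Kd from 11-point 3-fold series (top 30,000 nM, duplicate), Hill fit with slope −1.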

Sequence of human TYK2 (JH2domain-pseudokinase) (P29597 556-888): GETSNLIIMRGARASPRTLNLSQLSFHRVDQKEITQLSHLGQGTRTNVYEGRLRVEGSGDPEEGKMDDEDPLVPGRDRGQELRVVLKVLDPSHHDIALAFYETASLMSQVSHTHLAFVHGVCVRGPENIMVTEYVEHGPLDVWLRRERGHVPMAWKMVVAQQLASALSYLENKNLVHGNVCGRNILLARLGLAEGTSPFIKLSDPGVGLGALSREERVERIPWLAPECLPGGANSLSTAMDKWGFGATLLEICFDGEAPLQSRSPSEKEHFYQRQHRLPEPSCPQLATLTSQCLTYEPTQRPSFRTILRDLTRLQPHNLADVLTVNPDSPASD

First: Cc1nc2c(Nc3ccc(C4=NC(C)(C)CS4)cc3S(C)(=O)=O)cc(Nc3cnc(C)c(C)n3)nc2[nH]1 [I-566, N7-(4-(4,4-dimethyl-4,5-dihydrothiazol-2-yl)-2-(methylsulfonyl)phenyl)-N5-(5,6-dimethylpyrazin-2-yl)-2-methyl-3H-imidazo[4,5-b]pyridine-5,7-diamine]
Second: Cc1nc2c(Nc3ccc(-c4nc(C)sc4C)cc3S(C)(=O)=O)cc(Nc3cnc(C)c(C)n3)nc2[nH]1 [I-581, N5-(5,6-dimethylpyrazin-2-yl)-N7-(4-(2,5-dimethylthiazol-4-yl)-2-(methylsulfonyl)phenyl)-2-methyl-3H-imidazo[4,5-b]pyridine-5,7-diamine]
The Kd of the first is higher: 1 to 10 nM for the first, 0.1 to 0.5 nM for the second. The second binds more tightly here.

First: CC1(C)CSC(c2ccc(Nc3cc(NC(=O)C4CC4)nc4[nH]c(C(F)F)nc34)c(S(C)(=O)=O)c2)=N1 [I-567, N-(2-(difluoromethyl)-7-((4-(4,4-dimethyl-4,5-dihydrothiazol-2-yl)-2-(methylsulfonyl)phenyl)amino)-3H-imidazo[4,5-b]pyridin-5-yl)cyclopropanecarboxamide]
Second: Cc1nc2c(Nc3ccc(C4=NC(C)(C)CS4)cc3S(C)(=O)=O)cc(NC(=O)C3CC3)nc2[nH]1 [I-568, N-(7-((4-(4,4-dimethyl-4,5-dihydrothiazol-2-yl)-2-(methylsulfonyl)phenyl)amino)-2-methyl-3H-imidazo[4,5-b]pyridin-5-yl)cyclopropanecarboxamide]
The Kd of the first is higher: 1 to 10 nM for the first, 0.5 to 1 nM for the second.

Compared with `Cc1nc2c(Nc3ccc([C@H]4CCCO4)cc3S(C)(=O)=O)cc(Nc3cccc(C#N)n3)nc2[nH]1` [I-569, (R)-6-((2-methyl-7-((2-(methylsulfonyl)-4-(tetrahydrofuran-2-yl)phenyl)amino)-3H-imidazo[4,5-b]pyridin-5-yl)amino)picolinonitrile], `Cc1nc2c(Nc3ccc([C@@H]4CCCO4)cc3S(C)(=O)=O)cc(Nc3cccc(C#N)n3)nc2[nH]1` [I-570, (S)-6-((2-methyl-7-((2-(methylsulfonyl)-4-(tetrahydrofuran-2-yl)phenyl)amino)-3H-imidazo[4,5-b]pyridin-5-yl)amino)picolinonitrile] is higher in Kd: under 0.1 nM for the first, 0.1 to 0.5 nM for the second. The first binds more tightly here.

First: CS(=O)(=O)c1cc(C2CCC(F)(F)CO2)ccc1Nc1cc(NC(=O)C2CC2)nc2[nH]c(C(F)F)nc12 (stereo not shown) [I-571, N-(2-(difluoromethyl)-7-((4-(5,5-difluorotetrahydro-2H-pyran-2-yl)-2-(methylsulfonyl)phenyl)amino)-3H-imidazo[4,5-b]pyridin-5-yl)cyclopropanecarboxamide]
Second: CS(=O)(=O)c1cc([C@H]2CCC(F)(F)CO2)ccc1Nc1cc(NC(=O)C2CC2)nc2[nH]c(C(F)F)nc12 [I-593, (R)—N-(2-(difluoromethyl)-7-((4-(5,5-difluorotetrahydro-2H-pyran-2-yl)-2-(methylsulfonyl)phenyl)amino)-3H-imidazo[4,5-b]pyridin-5-yl)cyclopropanecarboxamide]
The Kd of the first is lower: 0.1 to 0.5 nM for the first, 1 to 10 nM for the second. The first binds more tightly here.

`Cc1nc2c(Nc3ccc(C4CCC(F)(F)CO4)cc3S(C)(=O)=O)cc(NC(=O)C3CC3)nc2[nH]1` (stereo not shown) [I-572, N-(7-((4-(5,5-difluorotetrahydro-2H-pyran-2-yl)-2-(methylsulfonyl)phenyl)amino)-2-methyl-3H-imidazo[4,5-b]pyridin-5-yl)cyclopropanecarboxamide] and `CS(=O)(=O)c1cc([C@@H]2CCC(F)(F)CO2)ccc1Nc1cc(NC(=O)C2CC2)nc2[nH]c(C(F)F)nc12` [I-594, (S)—N-(2-(difluoromethyl)-7-((4-(5,5-difluorotetrahydro-2H-pyran-2-yl)-2-(methylsulfonyl)phenyl)amino)-3H-imidazo[4,5-b]pyridin-5-yl)cyclopropanecarboxamide] fall in the same range of Kd: 0.1 to 0.5 nM for the first, 0.1 to 0.5 nM for the second.

First: COc1c(Nc2cc(Nc3cccc(C#N)n3)nc3[nH]c(C)nc23)cccc1-c1nccs1 [I-573, 6-((7-((2-methoxy-3-(thiazol-2-yl)phenyl)amino)-2-methyl-3H-imidazo[4,5-b]pyridin-5-yl)amino)picolinonitrile]
Second: COc1c(Nc2cc(Nc3cccc(C#N)n3)nc3[nH]c(C(F)F)nc23)cccc1-c1cnn(C)n1 [I-574, 6-((2-(difluoromethyl)-7-((2-methoxy-3-(2-methyl-2H-1,2,3-triazol-4-yl)phenyl)amino)-3H-imidazo[4,5-b]pyridin-5-yl)amino)picolinonitrile]
The Kd of the first is higher: 1 to 10 nM for the first, 0.1 to 0.5 nM for the second. The second binds more tightly here.

`Cc1nc2c(Nc3ccc(C4CCCO4)cc3S(C)(=O)=O)cc(Nc3ccc(C(C)C)c(C#N)n3)nc2[nH]1` (stereo not shown) [I-575, 3-isopropyl-6-((2-methyl-7-((2-(methylsulfonyl)-4-(tetrahydrofuran-2-yl)phenyl)amino)-3H-imidazo[4,5-b]pyridin-5-yl)amino)picolinonitrile] and `Cc1nc2c(Nc3ccc([C@H]4CCCCO4)cc3S(C)(=O)=O)cc(Nc3cc4n(n3)CCOC4)nc2[nH]1` [I-587, (R)—N5-(6,7-dihydro-4H-pyrazolo[5,1-c][1,4]oxazin-2-yl)-2-methyl-N7-(2-(methylsulfonyl)-4-(tetrahydro-2H-pyran-2-yl)phenyl)-3H-imidazo[4,5-b]pyridine-5,7-diamine] fall in the same range of Kd: 0.1 to 0.5 nM for the first, 0.1 to 0.5 nM for the second.

`COc1c(Nc2cc(NC(=O)C3CC3)nc3[nH]c(C(F)F)nc23)ccc(-c2cc(C)n(C)n2)c1F` [I-576, N-(2-(difluoromethyl)-7-((4-(1,5-dimethyl-1H-pyrazol-3-yl)-3-fluoro-2-methoxyphenyl)amino)-3H-imidazo[4,5-b]pyridin-5-yl)cyclopropanecarboxamide] and `COc1c(Nc2cc(NC(=O)C3CC3)nc3[nH]c(C)nc23)ccc(-c2cc(C)n(C)n2)c1F` [I-577, N-(7-((4-(1,5-dimethyl-1H-pyrazol-3-yl)-3-fluoro-2-methoxyphenyl)amino)-2-methyl-3H-imidazo[4,5-b]pyridin-5-yl)cyclopropanecarboxamide] cannot be ordered by Kd: over 10 nM for the first, over 10 nM for the second.

Compared with `Cc1cc(Nc2cc(Nc3ccc(-c4nc(C)sc4C)cc3S(C)(=O)=O)c3nc(C(F)F)[nH]c3n2)nc(C)n1` [I-578, 2-(difluoromethyl)-N5-(2,6-dimethylpyrimidin-4-yl)-N7-(4-(2,5-dimethylthiazol-4-yl)-2-(methylsulfonyl)phenyl)-3H-imidazo[4,5-b]pyridine-5,7-diamine], `Cc1cc(Nc2cc(Nc3ccc(-c4nc(C)sc4C)cc3S(C)(=O)=O)c3nc(C)[nH]c3n2)nc(C)n1` [I-579, N5-(2,6-dimethylpyrimidin-4-yl)-N7-(4-(2,5-dimethylthiazol-4-yl)-2-(methylsulfonyl)phenyl)-2-methyl-3H-imidazo[4,5-b]pyridine-5,7-diamine] is lower in Kd: 0.1 to 0.5 nM for the first, under 0.1 nM for the second. The second binds more tightly here.

`Cc1nc(-c2ccc(Nc3cc(Nc4cnc(C)c(C)n4)nc4[nH]c(C(F)F)nc34)c(S(C)(=O)=O)c2)c(C)s1` [I-580, 2-(difluoromethyl)-N5-(5,6-dimethylpyrazin-2-yl)-N7-(4-(2,5-dimethylthiazol-4-yl)-2-(methylsulfonyl)phenyl)-3H-imidazo[4,5-b]pyridine-5,7-diamine] and `Cc1nc2c(Nc3ccc(-c4cnn(C)c4C)cc3S(C)(=O)=O)cc(Nc3cccc(C(F)(F)F)n3)nc2[nH]1` [I-585, N7-(4-(1,5-dimethyl-1H-pyrazol-4-yl)-2-(methylsulfonyl)phenyl)-2-methyl-N5-(6-(trifluoromethyl)pyridin-2-yl)-3H-imidazo[4,5-b]pyridine-5,7-diamine] fall in the same range of Kd: 0.1 to 0.5 nM for the first, 0.1 to 0.5 nM for the second.

First: COc1cc(-c2nc(C)c(C)s2)ccc1Nc1cc(NC(=O)C2CC2)nc2[nH]c(C(F)F)nc12 [I-582, N-(2-(difluoromethyl)-7-((4-(4,5-dimethylthiazol-2-yl)-2-methoxyphenyl)amino)-3H-imidazo[4,5-b]pyridin-5-yl)cyclopropanecarboxamide]
Second: COc1cc(-c2cc(C)n(C)n2)ccc1Nc1cc(NC(=O)C2CC2)nc2[nH]c(C(F)F)nc12 [I-589, N-(2-(difluoromethyl)-7-((4-(1,5-dimethyl-1H-pyrazol-3-yl)-2-methoxyphenyl)amino)-3H-imidazo[4,5-b]pyridin-5-yl)cyclopropanecarboxamide]
The Kd of the first is higher: over 10 nM for the first, 1 to 10 nM for the second.

First: Cc1nc2c(Nc3ccc(-c4cc(C)n(C)n4)cc3S(C)(=O)=O)cc(Nc3cccc(C#N)n3)nc2[nH]1 [I-583, 6-((7-((4-(1,5-dimethyl-1H-pyrazol-3-yl)-2-(methylsulfonyl)phenyl)amino)-2-methyl-3H-imidazo[4,5-b]pyridin-5-yl)amino)picolinonitrile]
Second: COc1cc(-c2cc(C)n(C)n2)ccc1Nc1cc(NC(=O)C2CC2)nc2[nH]c(C)nc12 [I-590, N-(7-((4-(1,5-dimethyl-1H-pyrazol-3-yl)-2-methoxyphenyl)amino)-2-methyl-3H-imidazo[4,5-b]pyridin-5-yl)cyclopropanecarboxamide]
The Kd of the first is lower: 0.1 to 0.5 nM for the first, 1 to 10 nM for the second.

`COCCCc1cnc(-c2ccc(Nc3cc(NC(=O)C4CC4)nc4[nH]c(C(F)F)nc34)c(S(C)(=O)=O)c2)s1` [I-584, N-(2-(difluoromethyl)-7-((4-(5-(3-methoxypropyl)thiazol-2-yl)-2-(methylsulfonyl)phenyl)amino)-3H-imidazo[4,5-b]pyridin-5-yl)cyclopropanecarboxamide] and `CS(=O)(=O)c1cc(C2COCCO2)ccc1Nc1cc(NC(=O)C2CC2)nc2[nH]c(C(F)F)nc12` (stereo not shown) [I-588, N-(7-((4-(1,4-dioxan-2-yl)-2-(methylsulfonyl)phenyl)amino)-2-(difluoromethyl)-3H-imidazo[4,5-b]pyridin-5-yl)cyclopropanecarboxamide] fall in the same range of Kd: 0.1 to 0.5 nM for the first, 0.1 to 0.5 nM for the second.

First: Cc1nc2c(Nc3ccc([C@H]4CCC(C)(C)O4)cc3S(C)(=O)=O)cc(NC(=O)C3CC3)nc2[nH]1 [I-591, (R)—N-(7-((4-(5,5-dimethyltetrahydrofuran-2-yl)-2-(methylsulfonyl)phenyl)amino)-2-methyl-3H-imidazo[4,5-b]pyridineyl)cyclopropanecarboxamide]
Second: Cc1nc2c(Nc3ccc([C@@H]4CCC(C)(C)O4)cc3S(C)(=O)=O)cc(NC(=O)C3CC3)nc2[nH]1 [I-592, (S)—N-(7-((4-(5,5-dimethyltetrahydrofuran-2-yl)-2-(methylsulfonyl)phenyl)amino)-2-methyl-3H-imidazo[4,5-b]pyridin-5-yl)cyclopropanecarboxamide]
The Kd of the first is lower: 0.1 to 0.5 nM for the first, 0.5 to 1 nM for the second.
